Article PMC10786919, “Design-rules for stapled peptides with in vivo activity and their application to Mdm2/X antagonists” (Nature Communications, 2024)
Converted amounts (≈) assume the structure as drawn. Like-named read-outs stand apart in the source and are kept apart here. Positions of bridges follow the written chain, without caps; N, C: chain ends. Non-standard residues stand in square brackets, D forms with d. Residues, ends and D or L forms follow the SMILES beside them. Phe(4-SO3H) = N[C@@H](Cc1ccc(S(=O)(=O)O)cc1)C(=O)O; Lys(N3) = [N-]=[N+]=NCCCC[C@H](N)C(=O)O; R8 = C=CCCCCCC[C@@](C)(N)C(=O)O; Cba = N[C@@H](CC1CCC1)C(=O)O; S5 = C=CCCC[C@](C)(N)C(=O)O; βAla = NCCC(=O)O

Key:
[1] = in vitro
Description: Further, there have been several literature reports[18]–[20] that highlight that the combination of hydrophobic character and positive charge can result in mast cell degranulation (MCD), a potentially fatal condition[18]–[20]. […] The NanoClick assay[22] determines permeability of azide-labeled peptides by combining intracellular copper-free click chemistry with NanoBRET technology. Specifically, if an azido-peptide achieves cytosolic exposure, it will react with a cyclooctyne-decorated Halotag construct that is fused with nanoluciferase. This reaction blocks the click labelling of a subsequently added azido-labeled acceptor dye, thus decreasing the NanoBRET signal in a manner that is target-binding agnostic.
This assay was previously described in detail. The assay was performed in 384-well white assay plates (PerkinElmer CUSG03874) using assay-ready frozen cells that had been transiently transfected with the NanoLuc-HaloTag vector that were thawed at plated in complete media at a density of 6000 cells/ well and incubated at 37 °C 5% CO2 overnight. DIBAC-CA was diluted in assay buffer (OptiMem without phenol red + 1% FBS) and added to cells at a final concentration of 3 μM and incubated at 37 °C 5% CO2 for 1 h. Cells were subsequently centrifuged using a BlueWasher instrument (Blue Cat Bio) to remove the DIBAC-CA solution and washed two times with HBSS (Ca2 + , Mg2 + ). A volume of 30 μL of assay buffer was added back to cell plates. Peptides were serially diluted 4-fold in DMSO with a Hamilton Star apparatus and then delivered into assay plates with an acoustic liquid handler Labcyte ECHO (300 nl, 1% DMSO in-well concentration). After incubating cells with peptide for the desired time (4 or 18 h), the HaloTag ligand, NanoBret618-azide, was added to each well at a final concentration of 10 μM. […] Following addition of NanoBRET Nano-Glo Substrate, donor emission (450 nm) and acceptor emission (610 nm) were measured using an Envision instrument (PerkinElmer).

[2] = Experimental LogD (partition coefficient); conditions: not stated, Partition Coeff LogD
[3] = Lactate dehydrogenase (LDH) release assay; assay type: cell-based
In short: (§1)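 Geometric means of at least three independent biological runs are given for LDH release measured in HCT116 cells stably expressing a p53-driven β-lactamase reporter. Plating density was 8000 cells/well; DMSO in wells was 0.5%.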

[4] = tested on: HCT116 cells; assay: Lactate dehydrogenase (LDH) release assay; assay type: cell-based
In short: as §1

[5] = Solubility assay (kinetic solubility, PBS pH 7); assay type: physicochemical; conditions: pH 7, aqueous buffer, kinetic from dmso stock, pH 7, PBS; read-out: Solubility
In short: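 Next, measure peak areas of sample and standard. Finally, multiply their ratio by the standard concentration to obtain solubility (µM).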

[6] = Nanoclick permeability assay EC50
[7] = 0% FBS 4Hr, read-out: LDH: Cytotoxicity assay: EC50

Row | Compound | cell entry EC50 [1, 6] | logD [2] | EC50 ([3]; LDH: Cytotoxicity assay: EC50) | LDH: Cytotoxicity assay: % Effect [4] | solubility kinetic [5] | cell entry EC50 [1] | EC50 [3, 7] | LDH: Cytotoxicity assay: % Effect ([4]; 0% FBS 4Hr) | EC50 ([3]; 10% FBS 16Hr, read-out: LDH: Cytotoxicity assay: EC50) | LDH: Cytotoxicity assay: % Effect ([4]; 10% FBS 16Hr) | EC50 [4] | EC50 ([3]; 0% FBS 4Hr, read-out: LDH: Cytotoxicity assay EC50) | EC50 ([3]; 10% FBS 16Hr, read-out: LDH: Cytotoxicity assay EC50) | LDH: Cytotoxicity assay % Effect ([4]; 0% FBS 4Hr) | LDH: Cytotoxicity assay % Effect ([4]; 10% FBS 16Hr)
1 | CC(=O)N[C@@H](CCC(=O)O)C(=O)N[C@@H](CCC(=O)O)C(=O)N[C@@H](CCC(=O)O)C(=O)N[C@@H](CCCCN=[N+]=[N-])C(=O)NCCC(=O)N[C@@H](CC(C)C)C(=O)N[C@H](C(=O)N[C@@H](Cc1ccccc1)C(=O)N[C@]1(C)CCCCCCC=CCCC[C@@](C)(C(=O)N[C@@H](CO)C(=O)N[C@@H](C)C(=O)N[C@@H](C)C(N)=O)NC(=O)[C@H](CC2CCC2)NC(=O)[C@H](CCC(N)=O)NC(=O)[C@H](C)NC(=O)[C@H](Cc2c[nH]c3ccccc23)NC(=O)[C@H](Cc2ccc(O)cc2)NC(=O)[C@H](CCC(=O)O)NC1=O)[C@@H](C)O [MP-617] | 0.842 µM | 2.09 | > 50.6 µM | -1.09% | 81.5 µM (≈ 192 µg/mL) | – | – | – | – | – | – | – | – | – | –
2 | CC(=O)N[C@@H](CCCCN=[N+]=[N-])C(=O)NCCC(=O)N[C@@H](CC(=O)O)C(=O)N[C@H](C(=O)N[C@@H](Cc1ccccc1)C(=O)N[C@]1(C)CCCCCCC=CCCC[C@@](C)(C(=O)N[C@@H](CO)C(=O)N[C@@H](C)C(=O)N[C@@H](C)C(N)=O)NC(=O)[C@H](CC2CCC2)NC(=O)[C@H](CCC(N)=O)NC(=O)[C@H](CC(=O)O)NC(=O)[C@H](Cc2c[nH]c3ccccc23)NC(=O)[C@H](Cc2ccc(O)cc2)NC(=O)[C@H](CC(=O)O)NC1=O)[C@@H](C)O [MP-495, azide-ATSP-7041 (L1D, E5D, A8D)] (Ac-[Lys(N3)][βAla]DTF[R8]DYWDQ[Cba][S5]SAA-NH2; staple 6-13) | – | 1.93 | – | – | 78.7 µM (≈ 158 µg/mL) | 0.327 µM | > 50.6 µM | 1.328% | – | – | – | – | – | – | –
3 | CC(=O)N[C@@H](CCCCN=[N+]=[N-])C(=O)NCCC(=O)N[C@@H](CC(C)C)C(=O)N[C@H](C(=O)N[C@@H](Cc1ccccc1)C(=O)N[C@]1(C)CCCCCCC=CCCC[C@@](C)(C(=O)NCC(=O)NCC(=O)NCC(=O)NCC(=O)NCC(=O)NCC(N)=O)NC(=O)[C@H](CC2CCC2)NC(=O)[C@H](CCC(N)=O)NC(=O)[C@H](C)NC(=O)[C@H](Cc2c[nH]c3ccccc23)NC(=O)[C@H](Cc2ccc(O)cc2)NC(=O)[C@H](CCC(=O)O)NC1=O)[C@@H](C)O [MP-289] (Ac-[Lys(N3)][βAla]LTF[R8]EYWAQ[Cba][S5]GGGGGG-NH2; staple 6-13) | – | 2.58 | – | – | 142 µM (≈ 296 µg/mL) | 0.615 µM | > 50.7 µM | -4.216% | > 50.7 µM | 3.579% | – | – | – | – | –
4 | CC(C)C[C@H](NC(=O)CCNC(=O)[C@@H](N)CCCCN=[N+]=[N-])C(=O)N[C@H](C(=O)N[C@@H](Cc1ccccc1)C(=O)N[C@]1(C)CCCCCCC=CCCC[C@@](C)(C(N)=O)NC(=O)[C@H](CC2CCC2)NC(=O)[C@H](CC(C)C)NC(=O)[C@H](CCC(N)=O)NC(=O)[C@H](Cc2c[nH]c3ccccc23)NC(=O)[C@H](Cc2ccc(O)cc2)NC(=O)[C@H](CCC(=O)O)NC1=O)[C@@H](C)O [MP-329] (H-[Lys(N3)][βAla]LTF[R8]EYWQL[Cba][S5]-NH2; staple 6-13) | 2.69 µM | 2.71 | > 50.7 µM | – | 5 µM (≈ 8.71 µg/mL) | – | – | – | – | – | 50.5 µM | – | – | – | –
5 | CC(=O)N[C@@H](CCCCN=[N+]=[N-])C(=O)NCCC(=O)N[C@@H](CC(C)C)C(=O)N[C@H](C(=O)N[C@@H](Cc1ccccc1)C(=O)N[C@]1(C)CCCCCCC=CCCC[C@@](C)(C(=O)N[C@@H](CCC(=O)O)C(=O)N[C@@H](CC(N)=O)C(=O)N[C@@H](Cc2ccccc2)C(N)=O)NC(=O)[C@H](CC2CCC2)NC(=O)[C@H](CCC(N)=O)NC(=O)[C@H](C)NC(=O)[C@H](Cc2c[nH]c3ccccc23)NC(=O)[C@H](Cc2ccc(O)cc2)NC(=O)[C@H](CCC(=O)O)NC1=O)[C@@H](C)O [MP-328] (Ac-[Lys(N3)][βAla]LTF[R8]EYWAQ[Cba][S5]ENF-NH2; staple 6-13) | – | 2.65 | – | – | 108 µM (≈ 230 µg/mL) | 0.0663 µM | > 50.6 µM | -1.88% | – | – | – | – | – | – | –
6 | CC(C)C[C@@H]1NC(=O)[C@H](C)NC(=O)[C@H](Cc2c[nH]c3ccccc23)NC(=O)[C@H](Cc2ccc(O)cc2)NC(=O)[C@H](CCC(=O)O)NC(=O)[C@](C)(NC(=O)[C@H](Cc2ccccc2)NC(=O)[C@H](CO)NC(=O)[C@@H](NC(=O)[C@H](CO)NC(=O)CNC(=O)[C@H](CO)NC(=O)[C@H](CCCCN=[N+]=[N-])NC(=O)[C@@H](N)CCC(=O)O)[C@@H](C)O)CCCCCCC=CCCC[C@@](C)(C(N)=O)NC(=O)[C@H](CC(C)C)NC1=O [MP-0180] | 0.495 µM | 2.21 | > 50.6 µM | 13.96% | 24 µM (≈ 46.4 µg/mL) | – | – | – | – | – | – | – | – | – | –
7 | CC(=O)N[C@@H](CCCCN=[N+]=[N-])C(=O)NCCC(=O)N[C@@H](Cc1ccc(S(=O)(=O)O)cc1)C(=O)N[C@H](C(=O)N[C@@H](Cc1ccccc1)C(=O)N[C@]1(C)CCCCCCC=CCCC[C@@](C)(C(=O)N[C@@H](CO)C(=O)N[C@@H](C)C(=O)N[C@@H](C)C(N)=O)NC(=O)[C@H](CC2CCC2)NC(=O)[C@H](CCC(N)=O)NC(=O)[C@H](C)NC(=O)[C@H](Cc2c[nH]c3ccccc23)NC(=O)[C@H](Cc2ccc(O)cc2)NC(=O)[C@H](CCC(=O)O)NC1=O)[C@@H](C)O [MP-7668] (Ac-[Lys(N3)][βAla][Phe(4-SO3H)]TF[R8]EYWAQ[Cba][S5]SAA-NH2; staple 6-13) | 0.406 µM | 2.31 | > 50.6 µM | 2.173% | 28 µM (≈ 58.4 µg/mL) | – | – | – | – | – | – | – | – | – | –
8 | CC(C)C[C@@H]1NC(=O)[C@H](C)NC(=O)[C@H](Cc2c[nH]c3ccccc23)NC(=O)[C@H](Cc2ccc(O)cc2)NC(=O)[C@H](CCC(=O)O)NC(=O)[C@](C)(NC(=O)[C@H](Cc2ccccc2)NC(=O)[C@H](CO)NC(=O)[C@@H](NC(=O)[C@H](CO)NC(=O)CNC(=O)[C@H](CO)NC(=O)[C@H](CCCCN=[N+]=[N-])NC(=O)[C@H](CCC(=O)O)NC(=O)[C@@H](N)CCC(=O)O)[C@@H](C)O)CCCCCCC=CCCC[C@@](C)(C(N)=O)NC(=O)[C@H](CC(C)C)NC1=O [MP-0181] (H-EE[Lys(N3)]SGSTSF[R8]EYWALL[S5]-NH2; staple 10-17) | 2.07 µM | 2.05 | > 50.6 µM | 9.12% | 106 µM (≈ 219 µg/mL) | – | – | – | – | – | – | – | – | – | –
9 | CC(=O)N[C@@H](CCC(=O)O)C(=O)N[C@@H](CCC(=O)O)C(=O)N[C@@H](CCC(=O)O)C(=O)N[C@@H](CCCCN=[N+]=[N-])C(=O)NCCC(=O)N[C@@H](CC(C)C)C(=O)N[C@H](C(=O)N[C@@H](Cc1ccccc1)C(=O)N[C@]1(C)CCCCCCC=CCCC[C@@](C)(C(=O)N[C@@H](CCC(=O)O)C(=O)N[C@@H](CC(N)=O)C(=O)N[C@@H](Cc2ccccc2)C(N)=O)NC(=O)[C@H](CC2CCC2)NC(=O)[C@H](CCC(N)=O)NC(=O)[C@H](C)NC(=O)[C@H](Cc2c[nH]c3ccccc23)NC(=O)[C@H](Cc2ccc(O)cc2)NC(=O)[C@H](CCC(=O)O)NC1=O)[C@@H](C)O [MP-763] (Ac-EEE[Lys(N3)][βAla]LTF[R8]EYWAQ[Cba][S5]ENF-NH2; staple 9-16) | 1.14 µM | 1.86 | > 50.7 µM | – | 156 µM (≈ 393 µg/mL) | – | – | – | – | – | – | – | – | – | –
10 | CC(=O)N[C@@H](CCCCN=[N+]=[N-])C(=O)NCCC(=O)N[C@@H](CC(C)C)C(=O)N[C@H](C(=O)N[C@@H](Cc1ccccc1)C(=O)N[C@]1(C)CCCCCCC=CCCC[C@@](C)(C(=O)N[C@@H](C)C(=O)N[C@@H](C)C(=O)N[C@@H](C)C(=O)N[C@@H](CCC(=O)O)C(=O)N[C@@H](C)C(=O)N[C@H](C)C(N)=O)NC(=O)[C@H](CC2CCC2)NC(=O)[C@H](CCC(N)=O)NC(=O)[C@H](C)NC(=O)[C@H](Cc2c[nH]c3ccccc23)NC(=O)[C@H](Cc2ccc(O)cc2)NC(=O)[C@H](CCC(=O)O)NC1=O)[C@@H](C)O [MP-835] (Ac-[Lys(N3)][βAla]LTF[R8]EYWAQ[Cba][S5]AAAEA[dA]-NH2; staple 6-13) | – | 2.16 | – | – | 162 µM (≈ 361 µg/mL) | 0.537 µM | – | – | – | – | – | > 50.7 µM | > 50.7 µM | 3.786% | 22.41%
